Values belong to the compound of their own block, whether it stands above or below them. Activity calls are given as the source filed them.
Experiments:
Mu-type opioid receptor = Mu-type opioid receptor (Homo sapiens, UniProt P35372); assay: (§1) Counterscreen for agonists of heterodimerization of the mu 1 (OPRM1) and delta 1 (OPRD1) opioid receptors: Luminescence-based cell-based high throughput dose response assay to identify agonists of OPRM1 homodimerization.; type: functional
[1] = target: 5-hydroxytryptamine receptor 5A (Homo sapiens, UniProt P47898); assay: Counterscreen for agonists of OPRM1-OPRD1 heterodimerization: luminescence-based cell-based high throughput dose response assay to identify agonists of 5-hydroxytryptamine (serotonin) 5A receptor (HTR5A). [Related pubchem assays (depositor defined):AID504326, AID504355, AID504692, AID504904, AID504905]; type: functional
Sequence of 5-hydroxytryptamine receptor 5A (P47898 whole entry): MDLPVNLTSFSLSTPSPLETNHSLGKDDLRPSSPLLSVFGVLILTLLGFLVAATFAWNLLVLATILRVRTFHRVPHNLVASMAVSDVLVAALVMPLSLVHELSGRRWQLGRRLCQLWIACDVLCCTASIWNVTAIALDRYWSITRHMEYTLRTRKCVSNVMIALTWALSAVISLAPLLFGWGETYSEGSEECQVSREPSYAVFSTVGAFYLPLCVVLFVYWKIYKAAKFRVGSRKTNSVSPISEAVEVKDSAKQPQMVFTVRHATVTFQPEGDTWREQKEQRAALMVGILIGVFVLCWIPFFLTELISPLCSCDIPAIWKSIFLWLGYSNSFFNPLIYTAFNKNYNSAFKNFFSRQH

[2] = target: T1, Short transient receptor potential channel 4 (Mus musculus, UniProt Q9QUQ5); assay: calcium entry via TRPC4 opening agents – cell-based, HEK293 TRPC4/mu-opioid, Fluo-4 calcium, dose response (AID 434937); type: functional
T1 sequence (Q9QUQ5 whole entry): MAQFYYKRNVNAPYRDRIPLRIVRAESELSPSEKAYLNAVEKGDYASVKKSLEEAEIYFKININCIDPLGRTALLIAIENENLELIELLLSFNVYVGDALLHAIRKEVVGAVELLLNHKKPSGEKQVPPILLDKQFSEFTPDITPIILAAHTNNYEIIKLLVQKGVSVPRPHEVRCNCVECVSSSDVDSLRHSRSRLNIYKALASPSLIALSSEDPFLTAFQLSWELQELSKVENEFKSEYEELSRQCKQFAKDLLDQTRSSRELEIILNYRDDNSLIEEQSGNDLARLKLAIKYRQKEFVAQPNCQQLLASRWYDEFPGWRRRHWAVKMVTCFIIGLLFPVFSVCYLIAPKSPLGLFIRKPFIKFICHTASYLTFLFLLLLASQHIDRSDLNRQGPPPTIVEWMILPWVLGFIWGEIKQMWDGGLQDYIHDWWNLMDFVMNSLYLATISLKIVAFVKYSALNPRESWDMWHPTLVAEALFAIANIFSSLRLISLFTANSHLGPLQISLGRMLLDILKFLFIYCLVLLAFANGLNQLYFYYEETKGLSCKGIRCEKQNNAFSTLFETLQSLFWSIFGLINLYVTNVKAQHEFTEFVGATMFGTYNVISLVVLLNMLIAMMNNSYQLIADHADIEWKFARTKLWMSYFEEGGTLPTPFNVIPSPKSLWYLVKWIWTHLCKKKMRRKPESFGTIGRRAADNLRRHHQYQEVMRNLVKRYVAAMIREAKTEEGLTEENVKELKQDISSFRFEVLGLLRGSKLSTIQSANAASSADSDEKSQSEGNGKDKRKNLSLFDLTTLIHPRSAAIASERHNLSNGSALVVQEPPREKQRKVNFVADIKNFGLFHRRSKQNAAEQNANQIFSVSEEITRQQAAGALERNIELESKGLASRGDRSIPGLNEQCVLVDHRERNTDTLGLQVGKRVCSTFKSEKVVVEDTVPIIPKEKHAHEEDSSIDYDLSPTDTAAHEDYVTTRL

[3] = target: Delta-type opioid receptor (Homo sapiens, UniProt P41143); assay: as §1, with “of OPRD1” for “of OPRM1”, “homodimerization. [Related pubchem assays (depositor defined):AID504326, AID504355, AID504692, AID504904, AID504905]” for “homodimerization.”; type: functional
Sequence of Delta-type opioid receptor (P41143 whole entry): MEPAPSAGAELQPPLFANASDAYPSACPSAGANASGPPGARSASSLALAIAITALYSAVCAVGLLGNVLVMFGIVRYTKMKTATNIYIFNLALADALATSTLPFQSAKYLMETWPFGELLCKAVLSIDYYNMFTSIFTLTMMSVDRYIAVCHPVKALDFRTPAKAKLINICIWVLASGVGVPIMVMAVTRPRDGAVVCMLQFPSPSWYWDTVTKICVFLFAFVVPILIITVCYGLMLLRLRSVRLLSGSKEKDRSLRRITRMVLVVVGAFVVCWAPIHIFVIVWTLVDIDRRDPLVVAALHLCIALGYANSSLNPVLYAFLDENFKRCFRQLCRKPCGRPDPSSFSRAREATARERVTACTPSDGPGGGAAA

CAAX prenyl protease 2 = target: T2, CAAX prenyl protease 2 (Saccharomyces cerevisiae S288c, UniProt Q03530); type: biochemical
T2 sequence (Q03530 whole entry): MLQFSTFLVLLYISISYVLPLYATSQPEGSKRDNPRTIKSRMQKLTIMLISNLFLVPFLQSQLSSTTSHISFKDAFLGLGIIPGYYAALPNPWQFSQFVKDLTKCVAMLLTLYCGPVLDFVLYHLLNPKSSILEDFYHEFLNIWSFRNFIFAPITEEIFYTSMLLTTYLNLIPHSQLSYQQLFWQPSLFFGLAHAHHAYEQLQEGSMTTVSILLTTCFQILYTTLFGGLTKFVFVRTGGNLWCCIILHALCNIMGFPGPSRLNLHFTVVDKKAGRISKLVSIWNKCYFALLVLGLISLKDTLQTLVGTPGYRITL

[4] = target: T3, Aryl hydrocarbon receptor (Homo sapiens, UniProt P35869); assay: Luminescence-based cell-based high throughput dose response assay for activators of the Aryl Hydrocarbon Receptor (AHR). [Related pubchem assays: 2796 (Primary screen (AHR activators in singlicate)), 2845 (Confirmation screen (AHR activators in triplicate)), 434939 (Counterscreen (PXR activators in triplicate)), 2804 (Summary (AHR activators))]; type: ADME
T3 sequence (P35869 whole entry): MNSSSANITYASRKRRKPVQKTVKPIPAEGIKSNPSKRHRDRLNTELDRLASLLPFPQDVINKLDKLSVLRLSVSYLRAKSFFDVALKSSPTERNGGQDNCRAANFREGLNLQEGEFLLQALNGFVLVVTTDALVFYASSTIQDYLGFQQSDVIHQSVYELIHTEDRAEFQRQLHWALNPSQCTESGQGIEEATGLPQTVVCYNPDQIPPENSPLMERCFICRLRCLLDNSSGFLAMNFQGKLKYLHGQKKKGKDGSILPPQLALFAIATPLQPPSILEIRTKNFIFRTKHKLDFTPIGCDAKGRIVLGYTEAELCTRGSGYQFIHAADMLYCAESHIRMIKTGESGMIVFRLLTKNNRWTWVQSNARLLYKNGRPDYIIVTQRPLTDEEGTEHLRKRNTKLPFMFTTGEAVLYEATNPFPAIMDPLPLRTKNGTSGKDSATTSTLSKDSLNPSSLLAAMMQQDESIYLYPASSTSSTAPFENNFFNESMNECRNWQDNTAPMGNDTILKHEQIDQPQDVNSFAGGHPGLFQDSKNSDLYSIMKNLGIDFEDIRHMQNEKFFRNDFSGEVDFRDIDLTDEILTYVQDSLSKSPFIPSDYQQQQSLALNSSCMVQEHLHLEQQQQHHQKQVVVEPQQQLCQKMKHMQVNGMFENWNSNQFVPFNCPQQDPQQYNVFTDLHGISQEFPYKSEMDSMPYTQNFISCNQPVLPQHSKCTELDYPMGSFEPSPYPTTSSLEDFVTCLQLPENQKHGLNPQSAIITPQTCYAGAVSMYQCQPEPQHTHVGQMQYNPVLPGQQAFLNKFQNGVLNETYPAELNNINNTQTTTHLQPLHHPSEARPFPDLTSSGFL

[5] = target: T1, Short transient receptor potential channel 4; assay: block of DAMGO-driven TRPC4 calcium entry – cell-based, HEK293 TRPC4/mu-opioid, Fluo-4 calcium, dose response (AID 434942); type: functional;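 also: potency of inhibitors blocking the TRPC4 calcium response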
[6] = fluconazole-exposed Candida albicans growth modulators – fluorescence, retest, confirmation (AID 2467); type: functional, cell-based
[7] = NIH-3T3 fibroblast cytotoxicity, dose response, cytotoxicity control, cell-based, fluorescence, Alamar Blue, secondary assay (AID 2327); type: functional;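 also: NIH-3T3 mouse fibroblasts cultured with fluconazole at 8 µg/mL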
X-box-binding protein 1 = target: T4, X-box-binding protein 1 (Homo sapiens, UniProt P17861); type: functional, Cricetulus griseus;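 also: confirmatory dose-response counter-screen serving a CHOP assay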
T4 sequence (P17861 whole entry): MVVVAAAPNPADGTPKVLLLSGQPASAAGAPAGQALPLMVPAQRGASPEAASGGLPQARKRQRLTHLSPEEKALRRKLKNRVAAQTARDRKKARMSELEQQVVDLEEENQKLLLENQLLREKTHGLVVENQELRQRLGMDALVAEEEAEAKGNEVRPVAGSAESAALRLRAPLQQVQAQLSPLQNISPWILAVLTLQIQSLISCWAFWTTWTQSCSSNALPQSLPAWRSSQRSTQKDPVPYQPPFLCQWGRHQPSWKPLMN

Escherichia coli = assay: microbe, parasite or virus in culture
[8] = Luminescence Cell-Based Dose Confirmation HTS to Identify Inhibitors of Platelet Dense Granule Release. [Related pubchem assays: 1663 (Primary HTS), 1678 (Summary of Project)]; type: functional
[9] = target: Luciferin 4-monooxygenase (Photinus pyralis, UniProt P08659); assay: inhibition of purified Photinus pyralis luciferase – biochemical, luminescence, dose response (AID 1891)
Sequence of Luciferin 4-monooxygenase (P08659 whole entry): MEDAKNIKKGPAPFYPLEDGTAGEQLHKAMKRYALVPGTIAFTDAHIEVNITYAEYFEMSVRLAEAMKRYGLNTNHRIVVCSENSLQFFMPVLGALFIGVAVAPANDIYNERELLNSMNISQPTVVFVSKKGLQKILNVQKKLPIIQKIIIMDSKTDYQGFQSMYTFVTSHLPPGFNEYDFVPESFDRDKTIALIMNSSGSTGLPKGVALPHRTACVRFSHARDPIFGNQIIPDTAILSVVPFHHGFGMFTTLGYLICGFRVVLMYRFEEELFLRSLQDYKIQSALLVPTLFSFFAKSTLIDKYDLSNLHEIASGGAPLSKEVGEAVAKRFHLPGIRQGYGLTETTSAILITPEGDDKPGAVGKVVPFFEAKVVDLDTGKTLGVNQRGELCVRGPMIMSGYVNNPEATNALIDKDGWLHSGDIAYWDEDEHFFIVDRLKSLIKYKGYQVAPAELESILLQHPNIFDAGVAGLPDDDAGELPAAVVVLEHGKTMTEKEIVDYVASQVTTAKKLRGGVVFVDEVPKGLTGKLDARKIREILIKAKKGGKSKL

[10] = non-specific 3'UTR reporter inhibition in Clone20-Shn3RL – cell-based, Renilla luciferase, cherry-picked, counter-screen for Shn3 inhibitor project, dose response (AID 624133); type: functional
[11] = loss of viability in HepG2 cells – cell-based, CellTiter-Glo, cherry-picked, cytotoxicity control for Shn3 inhibitor project, dose response (AID 624134); type: functional
[12] = reduction of Shn3 3'UTR-driven luciferase in osteoblasts – cell-based, Clone20 osteoblasts, firefly luciferase, cherry-picked, dose response (AID 624132); type: functional;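 also: firefly luciferase luminescence from reporter carrying the Shn3 3'UTR in osteoblasts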
[13] = target: T5, Microphthalmia-associated transcription factor (Homo sapiens, UniProt O75030); assay: reducers of TRPM1 reporter luminescence, concentration series – cell-based, SK-MEL-5, cherry-picked, set 3, MITF inhibitor project, dose response (AID 493073); type: functional;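 also: SK-MEL-5 melanoma cells with luciferase driven by the MITF target TRPM1 promoter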
T5 sequence (O75030 whole entry): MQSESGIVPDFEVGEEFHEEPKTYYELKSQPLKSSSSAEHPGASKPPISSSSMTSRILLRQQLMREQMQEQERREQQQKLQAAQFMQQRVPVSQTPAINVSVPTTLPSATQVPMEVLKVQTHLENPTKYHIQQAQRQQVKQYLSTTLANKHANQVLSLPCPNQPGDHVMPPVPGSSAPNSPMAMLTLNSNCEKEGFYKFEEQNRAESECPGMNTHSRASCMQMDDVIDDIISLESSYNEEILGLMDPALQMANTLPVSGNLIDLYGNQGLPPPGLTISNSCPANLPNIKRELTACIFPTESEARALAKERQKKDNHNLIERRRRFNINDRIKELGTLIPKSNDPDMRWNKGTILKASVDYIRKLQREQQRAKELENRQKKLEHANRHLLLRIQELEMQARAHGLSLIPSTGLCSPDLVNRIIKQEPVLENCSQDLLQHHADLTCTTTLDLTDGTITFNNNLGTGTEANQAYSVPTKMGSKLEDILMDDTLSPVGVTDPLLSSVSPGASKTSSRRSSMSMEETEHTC

A-375 = assay: MITF: Counter assay: A375 proliferation Measured in Cell-Based System Using Plate Reader - 2084-03_Inhibitor_Dose_DryPowder_Activity. [Related pubchem assays (depositor defined):AID488944]; type: functional; conditions: Homo sapiens
[14] = target: Mitogen-activated protein kinase 10 (Homo sapiens, UniProt P53779); assay: Dose response biochemical screening assay for inhibitors of c-Jun N-Terminal Kinase 3 (JNK3). [Related pubchem assays: 746 ]
Sequence of Mitogen-activated protein kinase 10 (P53779 whole entry): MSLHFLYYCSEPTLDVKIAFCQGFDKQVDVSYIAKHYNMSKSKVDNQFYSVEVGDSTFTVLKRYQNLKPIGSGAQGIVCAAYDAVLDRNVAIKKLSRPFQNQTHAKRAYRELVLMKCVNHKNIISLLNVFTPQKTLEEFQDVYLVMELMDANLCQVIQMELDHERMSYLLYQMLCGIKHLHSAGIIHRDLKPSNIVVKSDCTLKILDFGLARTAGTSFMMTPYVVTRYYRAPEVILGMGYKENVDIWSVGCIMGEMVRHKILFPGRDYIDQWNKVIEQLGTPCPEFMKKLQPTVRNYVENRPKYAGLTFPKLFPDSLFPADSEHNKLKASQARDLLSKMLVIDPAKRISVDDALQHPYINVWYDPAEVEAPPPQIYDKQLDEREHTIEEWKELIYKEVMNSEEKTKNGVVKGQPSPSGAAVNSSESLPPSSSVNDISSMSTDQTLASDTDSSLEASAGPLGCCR

[15] = target: Intestinal-type alkaline phosphatase (Homo sapiens, UniProt P09923); assay: Dose Response confirmation of uHTS hits from a small molecule inhibitors of human intestinal alkaline phosphatase via a luminescent assay. [Related pubchem assays (depositor defined):AID2544, AID2574]; type: functional
Sequence of Intestinal-type alkaline phosphatase (P09923 whole entry): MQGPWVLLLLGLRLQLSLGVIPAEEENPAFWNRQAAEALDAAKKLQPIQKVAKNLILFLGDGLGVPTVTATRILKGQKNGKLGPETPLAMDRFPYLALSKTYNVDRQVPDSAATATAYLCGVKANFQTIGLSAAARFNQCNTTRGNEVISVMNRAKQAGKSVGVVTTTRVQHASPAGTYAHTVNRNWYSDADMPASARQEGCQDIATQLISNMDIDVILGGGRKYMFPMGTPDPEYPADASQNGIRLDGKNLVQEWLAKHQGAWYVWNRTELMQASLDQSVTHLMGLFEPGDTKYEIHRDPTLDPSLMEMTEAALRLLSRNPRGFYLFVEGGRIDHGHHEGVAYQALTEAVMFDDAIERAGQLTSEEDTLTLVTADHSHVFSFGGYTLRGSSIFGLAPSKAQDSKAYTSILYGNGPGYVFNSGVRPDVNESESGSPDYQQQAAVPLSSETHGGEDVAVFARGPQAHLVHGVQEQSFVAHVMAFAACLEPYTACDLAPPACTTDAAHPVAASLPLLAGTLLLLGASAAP

Sequence of Mu-type opioid receptor (P35372 whole entry): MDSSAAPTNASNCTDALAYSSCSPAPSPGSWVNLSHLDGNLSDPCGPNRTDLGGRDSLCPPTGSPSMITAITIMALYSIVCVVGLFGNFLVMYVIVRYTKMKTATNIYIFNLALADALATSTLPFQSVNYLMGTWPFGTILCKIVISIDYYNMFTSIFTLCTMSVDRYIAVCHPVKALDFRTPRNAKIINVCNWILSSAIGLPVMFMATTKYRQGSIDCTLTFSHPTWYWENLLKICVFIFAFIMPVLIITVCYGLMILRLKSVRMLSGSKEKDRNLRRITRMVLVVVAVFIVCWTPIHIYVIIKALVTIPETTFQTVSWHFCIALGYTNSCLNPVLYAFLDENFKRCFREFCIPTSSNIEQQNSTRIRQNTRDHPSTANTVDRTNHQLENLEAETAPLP

EC50 (Mu-type opioid receptor): > 92.5 µM (inactive) | EC50 [1]: > 92.5 µM (inactive) | EC50 [2]: 0.267 µM (active) | EC50 [3]: > 92.5 µM (inactive)
Compound: Cc1ccc(C)c(-n2cc(CNCCc3cnccn3)c(-c3ccccc3)n2)c1

AC50 (CAAX prenyl protease 2): 5.02 µM (active) | EC50 [4]: 5.72 µM (active)
Compound: COc1ccc(-c2oc3ccc(N4CCOCC4)cc3c2C#Cc2ccc(N)cc2)cc1

EC50 [2]: 8.41 µM (active) | EC50 [5]: 3.35 µM (active)
Compound: Cc1cc(NCc2ccccc2)nc2ccccc12

Compound: C=CCSc1nc(-c2ccc(OCCCC)cc2)n[nH]1
EC50 [6]: > 38 µM (not active) | EC50 [7]: > 150 µM (inactive) | Absolute IC50 (XBP1) (X-box-binding protein 1): < 10 µM

Compound: O=C(/C=C/Nc1ccccc1Br)c1ccccn1
AC50 (Escherichia coli): > 150 µM (inactive) | EC50 [8]: 4.02 µM (active) | EC50 [9]: 1.34 µM (active) | AC50 [10]: 30.4 µM (active) | AC50 [11]: 47.7 µM (active) | AC50 [12]: 1.8 µM (active) | AC50 [13]: 0.899 µM (active) | AC50 (A-375): 27.6 µM (active)

Absolute IC50 (XBP1) (X-box-binding protein 1): 10 µM
Compound: CC(C)c1ccccc1NC(=O)Cn1c(/C=C/c2ccccc2)nc2ccccc21

IC50 [14]: 51.9 µM (not active) | IC50 [15]: > 100 µM (inactive)
Compound: N#C/C(=C(\O)c1ccco1)c1ccccn1

Reference: ChEMBL document CHEMBL1201862, “PubChem BioAssay data set” (2004)
